# Source: patent US20060127505A1, “Anti-inflammatory formulations” (priority 2002, published 2006)
# “Also recorded” adds a separate entry of the source. Structures can show the parent of a compound that is named as a salt. Marks after values point to notes of the source that are not given here.
# Legend:
# [1] = test system: cAMP and cGMP concentrations in the lung tissue; test: Ovalbumin-induced asthma in guinea pigs: cAMP and cGMP in lung tissue (radioimmunoassay); assay type: in vivo, guinea pig; details: lung tissue 24 hours after OV challenge
# Method: The effect combinations of vitamin C, astaxanthin, and ginkolide on asthma-associated disease parameters ovalbumin(OA)-induced asthma in guinea pigs was evaluated. Twenty-four hours following OA challenge, animals are sacrificed and numbers of inflammatory cells (eosinophils, neutrophils, macrophages) are measured in bronchoalveolar lavage (BAL) fluid; and cAMP and cGMP concentrations in the lung tissue. The experiments were carried out as follows. Male Hartley guinea pigs (250-350 g) were sensitized by intramuscular injections of 0.35 ml of a 5% (W/V) ovalbumin (OA)/saline solution into each thigh on days 1 and 4. Guinea pigs were ready for asthmatic challenge after 25 days of ovalbumin injection. Asthmatic challenge was carried out with ovalbumin aerosol, and bronchoalveolar lavage (BAL) was done 24 hours later. The numbers of eosinophils, neutrophils, and macrophages in the BAL fluid were counted. Biopsies from lung tissues, cAMP and cGMP were measured using commercially available radioimmunoassay kits (Amersham). Immediately after sampling, lung biopsies were frozen by means of a Wollenberger clamp prechilled in liquid nitrogen. Samples were powdered with a pestle and mortar in liquid nitrogen and trichloro acetic acid (TCA) was added to the powdered frozen samples ([…] of tissue). Samples were further homogenized in the frozen TCA in the braying mortar and then centrifuged at 14,000×g for 10 min at 4° C. The supernatants were extracted 6 times in water-saturated diethylether, evaporated and assayed for cGMP by radioimmunoassay using liquid scintillation counter (Packard, Tri-Carb 2100TR). The dose-responsive effect of AX, EGb761, and vitamin C administered independently for suppression of asthma-associated parameters in allergen-induced, asthmatic guinea pigs was determined. Ibuprophen (IB) was used as the positive control. Concentration of inflammatory cells in bronchoalveolar lavage (BAL) fluid and levels of cAMP and cGMP in lung tissue were measured in guinea pigs 24 hours following challenge with OV. […] The dose-responsive effect of AX, EGb761, and vitamin C administered in combination for suppression of asthma-associated parameters in allergen-induced, asthmatic guinea pigs was determined. The combination of these three components was given each day for each guinea pig as a “cocktail”. Concentration of inflammatory cells in bronchoalveolar lavage (BAL) fluid and levels of cAMP and cGMP in lung tissue were measured in guinea pigs 24 hours following challenge with OV.
# [2] = test system: ovalbumin(OA)-induced asthma in guinea pigs; test: Ovalbumin-induced asthma in guinea pigs: inflammatory cells in BAL fluid; assay type: in vivo, guinea pig; details: for Eosinophils / Macrophages / Neutrophils: BAL fluid 24 hours after OV challenge
# Method: The effect combinations of vitamin C, astaxanthin, and ginkolide on asthma-associated disease parameters ovalbumin(OA)-induced asthma in guinea pigs was evaluated. Twenty-four hours following OA challenge, animals are sacrificed and numbers of inflammatory cells (eosinophils, neutrophils, macrophages) are measured in bronchoalveolar lavage (BAL) fluid; and cAMP and cGMP concentrations in the lung tissue. The experiments were carried out as follows. Male Hartley guinea pigs (250-350 g) were sensitized by intramuscular injections of 0.35 ml of a 5% (W/V) ovalbumin (OA)/saline solution into each thigh on days 1 and 4. Guinea pigs were ready for asthmatic challenge after 25 days of ovalbumin injection. Asthmatic challenge was carried out with ovalbumin aerosol, and bronchoalveolar lavage (BAL) was done 24 hours later. The numbers of eosinophils, neutrophils, and macrophages in the BAL fluid were counted. Twenty-four hours after the aerosol OA challenge, guinea pigs were killed by cervical dislocation and exsanguinated by severing the axillary arteries. Lungs were lavaged with 50 ml of DulBecco's phosphate-buffered saline (aliquots of 10 ml), which were aspirated after gentle chest massage. BAL fluid was centrifuged at 2200 rpm (1100×g) for 10 min, supernatant was aspirated, and pellets were resuspended in 5 ml 0.25% NaCl to lyse residual erythrocytes. This dispersion was centrifuged at 2200 rpm (1100×g) for 10 min, supernatant was aspirated, and pellets were resuspended 5 ml 0.9% NaCl. Total cell counts were done by hemocytometry using trypan blue stain. Slides were prepared on a Shandon Cytospin 2 (Pittsburgh, Pa.) at 300 rpm for 5 min, fixed and stained. Differential cell counts were done using standard morphologic criteria to classify cells as eosinophils, neutrophils, or macrophages, and the results were expressed in cell numbers. The dose-responsive effect of AX, EGb761, and vitamin C administered independently for suppression of asthma-associated parameters in allergen-induced, asthmatic guinea pigs was determined. Ibuprophen (IB) was used as the positive control. Concentration of inflammatory cells in bronchoalveolar lavage (BAL) fluid and levels of cAMP and cGMP in lung tissue were measured in guinea pigs 24 hours following challenge with OV. Data is reported as mean±SD of measurements taken in 6 animals per dosage cohort. *p<0.05 compared to corresponding values of OV antigen-challenged, drug-free control group. The dose-responsive effect of AX, EGb761, and vitamin C administered in combination for suppression of asthma-associated parameters in allergen-induced, asthmatic guinea pigs was determined. The combination of these three components was given each day for each guinea pig as a “cocktail”. Concentration of inflammatory cells in bronchoalveolar lavage (BAL) fluid and levels of cAMP and cGMP in lung tissue were measured in guinea pigs 24 hours following challenge with OV. Data is reported as mean±SD of measurements taken in 6 animals per dosage cohort. *p<0.05 compared to corresponding values of OV antigen-challenged, drug-free control group.
# [3] = test system: CD3+CD25+ cells in human PBMC; test: T lymphocyte activation (CD3+CD25+) in PHA-stimulated PBMC of asthma patients (Example 6); assay type: cell-based; details: PHA 50 μg/ml, 24 hours; 10^−5 M
# Method: Experiments were carried out to determine whether formulations based on the platelet activating factor receptor (PAFR) antagonist and free radical scavenger Ginkgolide B (GB) in combination with the antioxidant carotenoid astaxanthin (ASX) suppress T cell activation in the same dose range as two commonly-used antihistamines: cetirizine dihydrochloride (CTZ/Zyrtec) and azelastine ([…]). […] Results are reported as stimulation indices (SI) of % CD3+CD25+ cells in cultures treated with PHA alone to % CD3+CD25+ cells in each drug-supplemented culture. […] Subjects for this study included 12 patients diagnosed with atopic asthma, 7 male and 5 female, ranging in age from 21 to 40 years (mean 28±1.8 years). Disease duration ranged from 2 to 12 years. Atopy was defined on the basis of one or more positive skin prick tests to a range of 20 allergens. None of the patients had received systemic therapy for at least 6 weeks prior to blood collection. The mean serum IgE was 335 (170-480) IU/ml. Venous blood for each subject was collected in polyethylene tubes containing EDTA during a one hour morning time interval. PBMC were separated by Ficoll-paque (Pharmacia, Uppsala, Sweden) density gradient centrifugation. Cells were washed and suspended in RPMI 1640 medium (Gibco BRL, Gaithersburg, Md.) at density of 1×10^6 cells/ml. PBMC were stimulated with 50 μg/ml Phytohemaglutinin (PHA) (Sigma Immunopharmaceuticals, St. Lous Mo.), or PHA plus 10^-8-10^-5 M astaxanthin (Natural Alternatives International (NAI) Inc., San Marcos Calif.); or ginkgolide B 10^-8-10^-6 M (NAI San Marcos Calif.); or selected combinations of ASX plus GB. Comparison of ASX and GB effects on T cell activation were made with two other pharmacological agents with anti-asthmatic properties by treating cells with 10^-7-10^-4 M cetirizine dihydrochloride (Pfizer Pharmaceuticals, Norwich Conn.); or 10^-7-10^-4 M azalestine hydrochloride (Wallace Pharmaceuticals, Somerset N.J.), followed by evaluation of cultures for the same biological endpoints as ASX/GB-treated cells. Each reagent was added at the outset of a 24 hours culture period, followed by harvest of cellular fraction for immunophenotyping studies. […] Two-color Flow cytometry was conducted using a Coulter Epics XL automated flow cytometer (Coulter Scientific, Hialeah, Fla., USA). Isotypic controls for the monoclonal antibodies (mAb) used to detect antigens of interest were established for each cell preparation. Positive analysis regions for cells expressing specific surface markers were set against controls and specific binding of fluorophore-conjugated mAb was analyzed by cytofluorography according to standard methods recommended by the manufacturer. Lymphocyte subpopulations were identified by position on forward and side scatter plots and live-gated. Expression of each antigen was reported as percentage cells positive for a particular T cell subpopulation defined by expression of CD3 (T lymphocyte marker) plus CD25, plus or minus standard error. Statistical analysis was performed using an independent t-test. All statistical analyses were performed using the SPSS for Windows statistical package (Norusis/SPSS, Inc.). […] The capacity of formulations evaluated in this study to suppress immune activation was measured as a stimulation index (SI), defined as the ratio of […].
# [4] = test system: CD3+CD25+ T lymphocytes in human PBMC; test: PHA induction of CD25+ on CD3+ T cells, PBMC from asthma patients (Example 5); assay type: cell-based; details: for SI CD25: PHA 50 μg/ml, 24 hours
# Method: (§1) Experiments were carried out to determine whether the immunoregulatory capacity of two commonly-used H1-inhibitory antihistamines: cetirizine dihydrochloride (CTZ/Zyrtec) and azelastine ([…]) is potentiated by the platelet activating factor receptor (PAFR) antagonist and free radical scavenger Ginkgolide B (GB). […] Each drug was first evaluated independently over a 3-log dose range from 10^-8-10^-6 M.
# [5] = test system: CD3+HLA-DR+ T lymphocytes in human PBMC; test: PHA induction of HLA-DR+ on CD3+ T cells, PBMC from asthma patients (Example 5); assay type: cell-based; details: for SI HLA-DR: PHA 50 μg/ml, 24 hours
# Method: as §1
smiles,measurement,setting,value
"CC(C)Cc1ccc(C(C)C(=O)O)cc1 (centres unmarked) [IB, Ibuprophen, reference compound]",cAMP,[1]; 10 mg/kg,7.1 ± 0.6 pmol (mg protein)^−1
same,cGMP,[1]; 10 mg/kg,1.1 ± 0.2 pmol (mg protein)^−1
same,cAMP,[1]; 100 mg/kg,7.3 ± 0.9 pmol (mg protein)^−1
same,cGMP,[1]; 100 mg/kg,1.1 ± 0.2 pmol (mg protein)^−1
same,cAMP,[1]; 500 mg/kg,8.2 ± 0.8 pmol (mg protein)^−1
same,cGMP,[1]; 500 mg/kg,1.4 ± 0.2 pmol (mg protein)^−1
same,cAMP,[1]; 1000 mg/kg,8.1 ± 0.9 pmol (mg protein)^−1
same,cGMP,[1]; 1000 mg/kg,1.6 ± 0.2 pmol (mg protein)^−1
same,Eosinophils,[2]; 10 mg/kg,5.4 ± 0.8 cell × 10^6/animal
same,Macrophages,[2]; 10 mg/kg,9.5 ± 0.8 cell × 10^6/animal
same,Neutrophils,[2]; 10 mg/kg,5.7 ± 0.7 cell × 10^5/animal
same,Eosinophils,[2]; 100 mg/kg,4.7 ± 0.6 cell × 10^6/animal
same,Macrophages,[2]; 100 mg/kg,9.0 ± 1.3 cell × 10^6/animal
same,Neutrophils,[2]; 100 mg/kg,5.0 ± 0.7 cell × 10^5/animal
same,Eosinophils,[2]; 500 mg/kg,3.0 ± 0.8* cell × 10^6/animal
same,Macrophages,[2]; 500 mg/kg,4.7 ± 1.3* cell × 10^6/animal
same,Neutrophils,[2]; 500 mg/kg,3.1 ± 0.9* cell × 10^5/animal
same,Eosinophils,[2]; 1000 mg/kg,2.9 ± 0.5* cell × 10^6/animal
same,Macrophages,[2]; 1000 mg/kg,4.3 ± 0.9* cell × 10^6/animal
same,Neutrophils,[2]; 1000 mg/kg,3.1 ± 0.5* cell × 10^5/animal
"CN1CCCC(n2nc(Cc3ccc(Cl)cc3)c3ccccc3c2=O)CC1 (centres unmarked) [AZE, azelastine]",SI (CD3+CD25+),[3],0.76±0.12
same,decrease in SI for CD25+,[4]; 10^−8 M,19%
same,SI CD25,[4]; 10^−6 M,1.13 ± 0.15
same,SI CD25,[4]; 10^−7 M,0.88 ± 0.08
same,SI CD25,[4]; 10^−8 M,0.81 ± 0.08
same,decrease in SI for HLA-DR,[5]; 10^−8 M,45%
same,SI HLA-DR,[5]; 10^−6 M,0.61 ± 0.13
same,SI HLA-DR,[5]; 10^−7 M,0.56 ± 0.10
same,SI HLA-DR,[5]; 10^−8 M,0.55 ± 0.09
"O=C1O[C@H]([C@@H](O)CO)C(O)=C1O [Vitamin C, ascorbic acid]",cAMP,[1]; 50 mg/kg,6.8 ± 0.5 pmol (mg protein)^−1
same,cGMP,[1]; 50 mg/kg,1.1 ± 0.2 pmol (mg protein)^−1
same,cAMP,[1]; 100 mg/kg,7.1 ± 0.8 pmol (mg protein)^−1
same,cGMP,[1]; 100 mg/kg,1.0 ± 0.2 pmol (mg protein)^−1
same,cAMP,[1]; 200 mg/kg,7.9 ± 0.9 pmol (mg protein)^−1
same,cGMP,[1]; 200 mg/kg,1.2 ± 0.2 pmol (mg protein)^−1
same,cAMP,[1]; 400 mg/kg,7.9 ± 0.8 pmol (mg protein)^−1
same,cGMP,[1]; 400 mg/kg,1.5 ± 0.2 pmol (mg protein)^−1
same,Eosinophils,[2]; 50 mg/kg,5.5 ± 0.5 cell × 10^6/animal
same,Macrophages,[2]; 50 mg/kg,9.5 ± 0.9 cell × 10^6/animal
same,Neutrophils,[2]; 50 mg/kg,5.4 ± 0.6 cell × 10^5/animal
same,Eosinophils,[2]; 100 mg/kg,5.5 ± 0.8 cell × 10^6/animal
same,Macrophages,[2]; 100 mg/kg,9.8 ± 0.9 cell × 10^6/animal
same,Neutrophils,[2]; 100 mg/kg,5.6 ± 0.8 cell × 10^5/animal
same,Eosinophils,[2]; 200 mg/kg,4.8 ± 1.1 cell × 10^6/animal
same,Macrophages,[2]; 200 mg/kg,9.2 ± 0.8 cell × 10^6/animal
same,Neutrophils,[2]; 200 mg/kg,5.0 ± 0.8 cell × 10^5/animal
same,Eosinophils,[2]; 400 mg/kg,3.5 ± 0.9* cell × 10^6/animal
same,Macrophages,[2]; 400 mg/kg,7.2 ± 1.5* cell × 10^6/animal
same,Neutrophils,[2]; 400 mg/kg,4.7 ± 0.9 cell × 10^5/animal
same,protection against OV-induced asthma,"[2]; components used separately: 10 mg/kg AX, 200 mg/kg vit C, 10 mg/kg GB",failed to protect; also recorded: failed to reduce the severity of asthma
"O=C(O)COCCN1CCN(C(c2ccccc2)c2ccc(Cl)cc2)CC1 (centres unmarked) [CTZ, cetirizine dihydrochloride]",SI (CD3+CD25+),[3],0.78±0.11
same,decrease in SI for CD25+,[4]; 10^−8 M,29%
same,SI CD25,[4]; 10^−6 M,0.93 ± 0.06
same,SI CD25,[4]; 10^−7 M,0.88 ± 0.14
same,SI CD25,[4]; 10^−8 M,0.71 ± 0.12
same,decrease in SI for HLA-DR,[5]; 10^−8 M,53%
same,SI HLA-DR,[5]; 10^−6 M,0.70 ± 0.04
same,SI HLA-DR,[5]; 10^−7 M,0.58 ± 0.11
same,SI HLA-DR,[5]; 10^−8 M,0.47 ± 0.13
